Results on 22 compounds are retold here after patent US9365583B2, “Substituted pyrazoles and uses thereof” (Genentech, Inc., priority 2013, dated 2016).

pKi: −log10 of the molar value.

The target in the experiment is T1, N-terminally GST-tagged DLK (catalytic domain amino acid 1-520) (Homo sapiens, UniProt Q12852).
T1 construct: N-terminally GST-tagged DLK (catalytic domain amino acid 1-520); purchased Carna Bioscience
T1 sequence (Q12852 1-520): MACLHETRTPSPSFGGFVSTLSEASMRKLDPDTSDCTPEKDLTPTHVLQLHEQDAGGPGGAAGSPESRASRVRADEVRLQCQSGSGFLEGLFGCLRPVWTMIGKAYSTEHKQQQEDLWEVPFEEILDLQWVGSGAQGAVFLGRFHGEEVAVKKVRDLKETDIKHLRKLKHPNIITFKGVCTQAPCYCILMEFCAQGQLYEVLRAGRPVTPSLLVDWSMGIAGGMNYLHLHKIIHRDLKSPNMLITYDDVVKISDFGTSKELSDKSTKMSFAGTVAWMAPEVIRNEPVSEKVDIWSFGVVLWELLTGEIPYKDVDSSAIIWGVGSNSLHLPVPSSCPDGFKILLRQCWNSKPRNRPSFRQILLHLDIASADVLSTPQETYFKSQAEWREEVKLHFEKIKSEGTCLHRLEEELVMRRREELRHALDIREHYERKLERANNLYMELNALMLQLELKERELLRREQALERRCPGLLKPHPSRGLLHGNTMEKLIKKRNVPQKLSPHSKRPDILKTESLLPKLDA
Description: DLK TR-FRET inhibition assay. The format is biochemical. Particulars: 5 nM GST-DLK, 40 nM HIS-MKK4 K131M substrate, 30 μM ATP, 60 minutes at ambient temperature. In outline: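 Phosphorylated MKK4 was quantified by TR-FRET (Eu-labelled anti-phospho-MKK4, D2 anti-HIS; 3 h, 665 and 615 nm emission) after EDTA quench. Reactions held 5 nM GST-tagged DLK catalytic domain (1-520), 40 nM HIS-MKK4 K131M substrate, 30 μM ATP and compound (3-fold series from 20 uM), 60 min, room temperature, pH 7.5.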
(In general: In TR-FRET formats the signal depends on donor and acceptor labels being close together.)
As usually defined, the pKi is −log10 of the Ki, conventionally taken in molar units. For `CC(C)n1nc(-c2cnc(N)c(C(F)(F)F)c2)cc1[C@H]1[C@@H]2C[C@@H](N(C)CCS(C)(=O)=O)C[C@@H]21` [compound 7, 5-(1-isopropyl-5-((1R,3s,5S,6r)-3-(methyl(2-(methylsulfonyl)ethyl)amino)bicyclo[3.1.0]hexan-6-yl)-1H-pyrazol-3-yl)-3-(trifluoromethyl)pyridin-2-amine], the negative-log Ki (pKi) was 8.33.

The compound `CC(C)n1nc(-c2cnc(N)c(C(F)(F)F)c2)cc1[C@H]1[C@@H]2C[C@@H](N3CCCOCC3)C[C@@H]21` [compound 102, 5-(5-((1R,3s,5S,6r)-3-(1,4-oxazepan-4-yl)bicyclo[3.1.0]hexan-6-yl)-1-isopropyl-1H-pyrazol-3-yl)-3-(trifluoromethyl)pyridin-2-amine] showed a pKi of 9.10. The value for `CO[C@H]1CCN([C@@H]2C[C@@H]3[C@H](C2)[C@H]3c2cc(-c3cnc(N)c(OC(F)(F)F)c3)nn2C(C)C)C1` [compound 214, 5-(1-isopropyl-5-((1R,3s,5S,6S)-3-((S)-3-methoxypyrrolidm-1-yl)bicyclo[3.1.0]hexan-6-yl)-1H-pyrazol-3-yl)-3-(trifluoromethoxy) pyridin-2-amine] was 8.82; that for `CC(C)n1nc(-c2cnc(N)c(OC(F)(F)F)c2)cc1[C@H]1[C@@H]2C[C@H](N3C[C@@H]4C[C@H]3CN4C)C[C@@H]21` [compound 201, 5-(1-isopropyl-5-((1R,3r,5S,6S)-3-((1S,4S)-5-methyl-2,5-diazabicyclo [2.2.1]heptan-2-yl)bicyclo [3.1.0]hexan-6-yl)-1H-pyrazol-3-yl)-3-(trifluoromethoxy) pyridin-2-amine] was 8.89; that for `CC(C)n1nc(-c2cnc(N)c(C(F)(F)F)c2)cc1[C@H]1[C@@H]2C[C@H](N3CCN4CCCC4C3)C[C@@H]21` (stereo partly drawn) [compound 262, 5-(5-((1R,3r,5S,6r)-3-(hexa-hydropyrrolo[1,2-a]pyrazin-2(1H)-yl)bicyclo[3.1.0]hexan-6-yl)-1-isopropyl-1H-pyrazol-3-yl)-3-(trifluoromethyl)pyridin-2-amine] was greater than 10.00.

Compound `CC(C)n1nc(-c2cnc(N)c(C(F)(F)F)c2)cc1[C@H]1[C@@H]2C[C@H](N3CCOCC3)C[C@@H]21` [compound 52, 5-(1-isopropyl-5-((1R,3r,5S,6r)-3-morpholinobicyclo[3.1.0]hexan-6-yl)-1H-pyrazol-3-yl)-3-(trifluoromethyl)pyridin-2-amine] had a pKi of 8.40. In turn, `CC(C)n1nc(-c2cnc(N)c(OC(F)(F)F)c2)cc1[C@H]1[C@@H]2C[C@@H](N3CCNCC3)C[C@@H]21` [compound 245, 5-(1-isopropyl-5-((1R,3s,5S,6r)-3-(piperazin-1-yl)bicyclo[3.1.0]hexan-6-yl)-1H-pyrazol-3-yl)-3-(trifluoromethoxy)pyridin-2-amine] had a pKi of 8.59. The value for `CC(C)n1nc(-c2cnc(N)c(OC(F)F)c2)cc1[C@H]1[C@@H]2C[C@@H](OC3COC3)C[C@@H]21` [compound 231, 3-(difluoromethoxy)-5-(1-iso-propyl-5-((1R,3s,5S,6r)-3-(oxetan-3-yloxy)bicyclo[3.1.0]hexan-6-yl)-1H-pyrazol-3-yl)pyridin-2-amine] was 8.26; that for `Nc1ncc(-c2cc([C@H]3[C@@H]4C[C@H](N5CCOCC5)C[C@@H]43)n(CC(F)F)n2)cc1OC(F)(F)F` [compound 93, 5-(1-(2,2-difluoroethyl)-5-((1R,3r,5S,6r)-3-morpholinobicyclo [3.1.0]hexan-6-yl)-1H-pyrazol-3-yl)-3-(trifluoromethoxy)pyridin-2-amine] was 8.91.

With `CC(C)n1nc(-c2cnc(N)c(OC(F)F)c2)cc1[C@H]1[C@@H]2C[C@H](N3CCN(C)CC3)C[C@@H]21` [compound 198, 3-(difluoromethoxy)-5-(1-isopropyl-5-((1R,3r,5S,6r)-3-(4-methyl-piperazin-1-yl)bicyclo[3.1.0]hexan-6-yl)-1H-pyrazol-3-yl) pyridin-2-amine], the pKi was 8.68. `CC(C)n1nc(-c2cnc(N)c(C(F)(F)F)c2)cc1[C@@H]1[C@@H]2C[C@H](N3CCOCC3)C[C@@H]21` [compound 126, 5-(1-isopropyl-5-((1R,5S,6s)-3-morpholinobicyclo[3.1.0]hexan-6-yl)-1H-pyrazol-3-yl)-3-(trifluoro-methyl)pyridin-2-amine] showed a pKi of less than 5.80.

For the compound `CC(C)n1nc(-c2cnc(N)c(OC(F)F)c2)cc1[C@H]1[C@@H]2C[C@@H](N3CCCN(C)CC3)C[C@@H]21` [compound 205, 3-(difluoromethoxy)-5-(1-isopropyl-5-((1R,3s,5S,6r)-3-(4-methyl-1,4-diazepan-1-yl)bicyclo [3.1.0]hexan-6-yl)-1H-pyrazol-3-yl)pyridin-2-amine], the pKi is 8.54. The value for `COC1CN([C@@H]2C[C@@H]3[C@H](C2)[C@H]3c2cc(-c3cnc(N)c(OC(F)F)c3)nn2C(C)C)C1` [compound 62, 3-(difIuoromethoxy)-5-(1-isopropyl-5-((1R,3s,5S,6r)-3-(3-methoxy-azetidin-1-yl)bicyclo[3.1.0]hexan-6-yl)-1H-pyrazol-3-yl) pyridin-2-amine] was 8.56; that for `CC(C)n1nc(-c2cnc(N)c(OC(F)(F)F)c2)cc1[C@H]1[C@@H]2C[C@H](N3CCCN(C)CC3)C[C@@H]21` [compound 204, 5-(1-isopropyl-5-((1R,3r,5S,6r)-3-(4-methyl-1,4-diazepan-1-yl)bicyclo[3.1.0]hexan-6-yl)-1H-pyrazol-3-yl)-3-(trifluoromethoxy) pyridin-2-amine] was 8.92; that for `CC(C)n1nc(-c2cnc(N)c(SC(F)(F)F)c2)cc1[C@H]1[C@@H]2C[C@@H](N3CCOCC3)C[C@@H]21` [compound 95, 5-(1-isopropyl-5-((1R,3s,5S,6r)-3-morpholinobicyclo[3.1.0]hexan-6-yl)-1H-pyrazol-3-yl)-3-((trifluoro-methyl)thio)pyridin-2-amine] was 8.67. On to `Nc1ncc(-c2cc([C@H]3[C@@H]4C[C@@H](N5CCOCC5)C[C@@H]43)nn2C2CCC2)cc1OC(F)F` [compound 133, 5-(1-cyclobutyl-3-((1R,3s,5S,6r)-3-morpholinobicyclo[3.1.0]hexan-6-yl)-1H-pyrazol-5-yl)-3-(difluoromethoxy)pyridin-2-amine], for which the pKi was no more than 6.49. Compound `CC(C)n1nc(-c2cnc(N)c(C(F)(F)F)c2)cc1[C@H]1[C@@H]2C[C@H](N3CCN(C4COC4)CC3)C[C@@H]21` [compound 116, 5-(1-isopropyl-5-((1R,3r,5S,6r)-3-(4-(oxetan-3-yl)piperazin-1-yl)bicyclo[3.1.0]hexan-6-yl)-1H-pyrazol-3-yl)-3-(trifluoromethyl) pyridin-2-amine] had a pKi of 8.11. The value for `CC(C)n1nc(-c2cnc(N)c(OC(F)F)c2)cc1[C@H]1[C@@H]2C[C@H](N3CCC(F)(F)C3)C[C@@H]21` [compound 89, 3-(difluoromethoxy)-5-(5-((1R,3r,5S,6r)-3-(3,3-difluoropyrrolidin-1-yl)bicyclo[3.1.0]hexan-6-yl)-1-isopropyl-1H-pyrazol-3-yl) pyridin-2-amine] was 8.19; that for `CC(C)n1nc(-c2cnc(N)c(C(F)(F)F)c2)cc1[C@H]1[C@@H]2C[C@H](N3CCCC3=O)C[C@@H]21` [compound 35, 1-((1R,3r,5S,6r)-6-(3-(6-amino-5-(trifluoromethyl)pyridin-3-yl)-1-isopropyl-1H-pyrazol-5-yl)bicyclo[3.1.0]hexan-3-yl)pyrrolidin-2-one] was 8.52. The value for `CC(C)n1nc(-c2cnc(N)c(OC(F)F)c2)cc1[C@H]1[C@@H]2C[C@H]3CN(C)C[C@H]3[C@@H]21` (racemic) [compound 163, (±)-3-(difluoromethoxy)-5-(1-isopropyl-5-((3aS,3bR,4S,4aR,5aR)-2-methyloctahydro-1H-cyclopropa[3,4]cyclopenta[1,2-c]pyrrol-4-yl)-1H-pyrazol-3-yl) pyridin-2-amine] was 8.55. Under `CC(C)n1nc(-c2cnc(N)c(OC(F)F)c2)cc1[C@H]1[C@@H]2C[C@@H](N3C[C@@H](F)[C@@H](F)C3)C[C@@H]21` [compound 119, 3-(difluoromethoxy)-5-(5-((1R, 3s,5S,6R)-3-((3S,4R)-3,4-difluoro-pyrrolidin-1-yl)bicyclo[3.1.0]hexan-6-yl)-1-isopropyl-1H-pyrazol-3-yl)pyridin-2-amine] stands 8.18; under `CC(C)n1nc(-c2cnc(N)c(OC(F)(F)F)c2)cc1[C@H]1[C@@H]2C[C@@H](N(C)C3COC3)C[C@@H]21` [compound 48, 5-(1-isopropyl-5-((1R,3s,5S,6r)-3-(methyl(oxetan-3-yl)amino)bicyclo[3.1,0]hexan-6-yl)-1H-pyrazol-3-yl)-3-(trifluoromethoxy) pyridin-2-amine], 8.51.
